Laboratory results as given in US20220306695A1, “COMPSTATIN ANALOGUES AND THEIR MEDICAL USES” (priority 2019, published 2022).
Where two headings read alike, the source gives them in different places. Starred links: 1 amine or outer side, 2 acyl side, 3 side chain; linkers in the order of their positions; H or OH if unused. Positions of bridges follow the written chain, without caps; N, C: chain ends. Non-standard residues stand in square brackets, D forms with d. Residues, ends and D or L forms follow the SMILES beside them. Groups on a side chain read outwards from the residue. *: point of attachment. Trp(1-Me) = Cn1cc(C[C@H](N)C(=O)O)c2ccccc21; Abu(4-yl) = O=C([C@H](CC[*:3])N[*:1])[*:2]; C18 diacid = O=C(O)CCCCCCCCCCCCCCCCC(=O)*; γGlu = O=C(O)[C@H](CCC(=O)[*:2])N[*:1]; AEEA = NCCOCCOCC(=O)O; Sar = CNCC(=O)O

Assays:
[1] = in vivo; parameters: species or system Cynomolgus monkeys (Macaca fascicularis); settings: male, cynomolgus monkey, sc, 1840 nmol/kg; for half-life: t½
Method in brief: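 Healthy male cynomolgus monkeys dosed once subcutaneously at 1840 nmol/kg in 20 mM phosphate pH 7.5 with mannitol. Serum sampled pre-dose to 120 h and total drug measured by SPE and LC-MS/MS. Terminal half-life calculated non-compartmentally as ln(2)/λz from the terminal log-linear phase.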

[2] = biological target: T1, Human C3 (Homo sapiens, UniProt P01024); experiment: Affinity measurement by surface plasmon resonance (SPR) with immobilized C3; assay type: binding; settings: Table 7; immobilized C3, 25° C., pH 7.4
T1 construct: purchased Complement tech A1 13c (so in the source)

[3] = test system: classical complement pathway; experiment: In vitro haemolysis assay (inhibition of classical complement pathway); assay type: cell-based, human; settings: Table 3; human serum, sensitized sheep red blood cells; read-out: IC50[nM], in vitro analysis of inhibition of hemolysis
Method in brief: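 Serially diluted compound (9 points) was preincubated 15 min at room temperature with diluted human serum, titrated per batch to give 70-90% maximal haemolysis, in Tris/casein buffer pH 7.4 with Mg2+/Ca2+. Antibody-sensitized sheep erythrocytes were then added for 30 min at 37° C, and the reaction was stopped with EDTA. Haemolysis was read at A405, with IC50 from 4PL fit.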

[4] = assay type: physicochemical; settings: 50 mg/mL peptide; for Covalent oligomer content after 14 days 40° C. (%), F1 / Purity after 14 days 40° C. (%), F1: F1: 20 mM phosphate pH 5.5; for Covalent oligomer content after 14 days 40° C. (%), F1 / Covalent oligomer content after 14 days 40° C. (%), F2: denaturing SEC; for Purity after 14 days 40° C. (%), F1 / Purity after 14 days 40° C. (%), F2 / Purity after 14 days 40° C. (%), F3: normalized purity (HPLC)
Method in brief: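 Compstatin analogues with cystathionine or disulfide bridge held at 50 mg/mL in 20 mM phosphate pH 5.5, 6.5 or 7.5 and stored 14 days at 40 °C. At 0, 7 and 14 days, samples diluted to 2 mg/mL; purity by reverse-phase HPLC (220 nm) and covalent oligomer content by denaturing SEC (215 nm), from integrated chromatograms.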

[5] = Solubility test at 10 mg/mL (visual inspection and light scattering); assay type: physicochemical
[6] = biological target: T2, Human C3 (human, UniProt P01024 23-1663); experiment: cell-based or functional assay
[7] = biological target: T2, Human C3; experiment: cell-based or functional assay; remark: listed apart in the source

T2 sequence (P01024 23-1663 limits assumed): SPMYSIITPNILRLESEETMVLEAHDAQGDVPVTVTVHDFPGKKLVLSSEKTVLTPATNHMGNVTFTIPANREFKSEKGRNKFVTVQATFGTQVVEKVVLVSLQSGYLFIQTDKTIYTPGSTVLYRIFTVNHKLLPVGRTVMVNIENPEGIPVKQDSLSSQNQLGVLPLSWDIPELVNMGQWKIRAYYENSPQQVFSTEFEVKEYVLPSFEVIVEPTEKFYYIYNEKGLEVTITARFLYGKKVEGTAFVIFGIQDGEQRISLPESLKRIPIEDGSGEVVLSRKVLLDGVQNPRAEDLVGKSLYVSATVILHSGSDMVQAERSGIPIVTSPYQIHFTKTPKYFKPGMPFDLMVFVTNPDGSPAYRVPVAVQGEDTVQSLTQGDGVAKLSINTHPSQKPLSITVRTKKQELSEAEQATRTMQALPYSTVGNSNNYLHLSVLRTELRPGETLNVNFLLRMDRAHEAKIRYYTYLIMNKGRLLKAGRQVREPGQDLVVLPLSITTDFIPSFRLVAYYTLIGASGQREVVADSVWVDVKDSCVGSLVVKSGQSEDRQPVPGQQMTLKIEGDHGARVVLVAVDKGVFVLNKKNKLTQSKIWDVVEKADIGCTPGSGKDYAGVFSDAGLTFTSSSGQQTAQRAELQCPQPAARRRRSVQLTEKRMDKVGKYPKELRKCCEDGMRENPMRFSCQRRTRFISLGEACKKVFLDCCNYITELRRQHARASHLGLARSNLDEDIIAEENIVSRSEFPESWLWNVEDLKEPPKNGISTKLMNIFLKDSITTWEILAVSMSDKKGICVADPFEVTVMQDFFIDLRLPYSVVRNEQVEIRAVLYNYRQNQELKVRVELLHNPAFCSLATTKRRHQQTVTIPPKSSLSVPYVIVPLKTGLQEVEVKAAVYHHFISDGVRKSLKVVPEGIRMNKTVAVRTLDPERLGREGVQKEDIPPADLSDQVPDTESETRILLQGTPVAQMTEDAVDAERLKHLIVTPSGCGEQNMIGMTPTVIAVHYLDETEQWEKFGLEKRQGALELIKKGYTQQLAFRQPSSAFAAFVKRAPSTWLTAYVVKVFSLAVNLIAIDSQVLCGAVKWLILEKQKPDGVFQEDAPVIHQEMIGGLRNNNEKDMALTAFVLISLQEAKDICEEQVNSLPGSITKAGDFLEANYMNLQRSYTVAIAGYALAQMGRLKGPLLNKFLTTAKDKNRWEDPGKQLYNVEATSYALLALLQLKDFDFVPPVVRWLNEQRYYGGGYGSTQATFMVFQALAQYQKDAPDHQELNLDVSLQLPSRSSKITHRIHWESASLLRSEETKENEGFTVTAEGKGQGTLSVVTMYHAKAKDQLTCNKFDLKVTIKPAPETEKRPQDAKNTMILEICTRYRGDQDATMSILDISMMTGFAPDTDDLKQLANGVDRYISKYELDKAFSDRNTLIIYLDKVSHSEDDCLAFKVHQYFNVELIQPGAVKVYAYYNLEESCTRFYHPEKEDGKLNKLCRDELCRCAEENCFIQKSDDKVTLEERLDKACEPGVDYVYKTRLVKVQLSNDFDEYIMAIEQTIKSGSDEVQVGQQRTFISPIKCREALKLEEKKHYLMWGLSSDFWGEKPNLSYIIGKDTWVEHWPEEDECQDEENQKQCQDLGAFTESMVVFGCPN

CC[C@H](C)[C@@H]1NC(=O)[C@@H](NC(=O)[C@H](Cc2ccccc2)NC(=O)[C@H](CCC(=O)O)NC(=O)[C@H](CO)NC(C)=O)CSCC[C@@H](C(=O)N[C@H](C(=O)N[C@@H](CCC(=O)O)C(=O)NCC(=O)N[C@@H](CCC(=O)O)C(=O)NCCOCCOCC(=O)N[C@@H](CCC(=O)O)C(=O)N[C@@H](CO)C(=O)N[C@@H](CCCCNC(=O)CC[C@H](NC(=O)CCCCCCCCCCCCCCCCC(=O)O)C(=O)O)C(N)=O)[C@@H](C)O)NC(=O)[C@H](CCCNC(=N)N)NC(=O)[C@H](Cc2c[nH]cn2)NC(=O)[C@H](CCC(=O)O)NC(=O)CNC(=O)[C@H](Cc2c[nH]c3ccccc23)NC(=O)[C@H](CC(=O)O)NC(=O)[C@H](CCC(N)=O)NC(=O)[C@H](Cc2cn(C)c3ccccc23)NC1=O [Compound 148, Ac-SEFA(1)I[1-Me-Trp]QDWGEHRhC(1)TEGE[Peg3]ES-K([17-carboxy-heptadecanoyl][γGlu])-NH2] (Ac-SEFCI[Trp(1-Me)]QDWGEHR[Abu(4-yl)]TEGE[AEEA]ESK([γGlu-C18 diacid])-NH2; thioether 4-14)
half-life [1]: 129 h | Kd [2]: 3.4 nM | IC50 [3]: < 100 nM | Covalent oligomer content after 14 days 40° C. (%), F1 [4]: 0.7% | Purity after 14 days 40° C. (%), F1 [4]: 93% | Covalent oligomer content after 14 days 40° C. (%), F2 ([4]; F2: 20 mM phosphate pH 6.5): 0.0% | Purity after 14 days 40° C. (%), F2 ([4]; F2: 20 mM phosphate pH 6.5): 97% | Covalent oligomer content after 14 days 40° C. (%), F2 ([4]; F3: 20 mM phosphate pH 7.5): 0.1% | Purity after 14 days 40° C. (%), F3 ([4]; F3: 20 mM phosphate pH 7.5): 97%

CC[C@H](C)[C@@H]1NC(=O)[C@@H](NC(=O)[C@H](Cc2ccccc2)NC(=O)[C@H](CCC(=O)O)NC(=O)[C@H](CO)NC(C)=O)CSSC[C@@H](C(=O)N(C)CC(=O)N[C@@H](CCC(=O)O)C(=O)NCC(=O)N[C@@H](CCC(=O)O)C(=O)NCCOCCOCC(=O)NCCOCCOCC(=O)N[C@@H](CCCCNC(=O)CC[C@H](NC(=O)CNC(=O)CC[C@H](NC(=O)CCCCCCCCCCCCCCCCC(=O)O)C(=O)O)C(=O)O)C(N)=O)NC(=O)[C@H](CCCNC(=N)N)NC(=O)[C@H](Cc2c[nH]cn2)NC(=O)[C@H](CCC(=O)O)NC(=O)CNC(=O)[C@H](Cc2c[nH]c3ccccc23)NC(=O)[C@H](CC(=O)O)NC(=O)[C@H](CCC(N)=O)NC(=O)[C@H](Cc2cn(C)c3ccccc23)NC1=O [Compound 123] (Ac-SEFCI[Trp(1-Me)]QDWGEHRC[Sar]EGE[AEEA][AEEA]K([γGlu-Gly-γGlu-C18 diacid])-NH2; disulfide 4-14)
half-life [1]: 105 h | Kd [2]: 11 nM | IC50 [3]: < 100 nM | Covalent oligomer content after 14 days 40° C. (%), F1 [4]: 52% | Purity after 14 days 40° C. (%), F1 [4]: 56% | Covalent oligomer content after 14 days 40° C. (%), F2 ([4]; F2: 20 mM phosphate pH 6.5): 48% | Purity after 14 days 40° C. (%), F2 ([4]; F2: 20 mM phosphate pH 6.5): 54% | Covalent oligomer content after 14 days 40° C. (%), F2 ([4]; F3: 20 mM phosphate pH 7.5): 45% | Purity after 14 days 40° C. (%), F3 ([4]; F3: 20 mM phosphate pH 7.5): 54%

CC[C@H](C)[C@@H]1NC(=O)[C@@H](NC(=O)[C@H](Cc2ccc(O)cc2)NC(=O)[C@H](CCC(=O)O)NC(=O)[C@H](CO)NC(C)=O)CSSC[C@@H](C(=O)N(C)CC(=O)N[C@@H](CCC(=O)O)C(=O)NCC(=O)N[C@@H](C)C(=O)N[C@@H](CCCCNC(=O)COCCOCCNC(=O)CC[C@H](NC(=O)COCCOCCNC(=O)CNC(=O)CC[C@H](NC(=O)CCCCCCCCCCCCCCCCC(=O)O)C(=O)O)C(=O)O)C(N)=O)NC(=O)[C@H](CCCNC(=N)N)NC(=O)[C@H](Cc2c[nH]cn2)NC(=O)[C@H](CCC(=O)O)NC(=O)CNC(=O)[C@H](Cc2c[nH]c3ccccc23)NC(=O)[C@H](CC(=O)O)NC(=O)[C@H](CCC(N)=O)NC(=O)[C@H](Cc2cn(C)c3ccccc23)NC1=O [Compound 118] (Ac-SEYCI[Trp(1-Me)]QDWGEHRC[Sar]EGAK([AEEA-γGlu-AEEA-Gly-γGlu-C18 diacid])-NH2; disulfide 4-14)
t½ [1]: 155 h | half-life [1]: 78.7 h | Kd [2]: 11 nM | IC50 [3]: < 100 nM | Solubility, Condition 1 Acetate pH 4 ([5]; 10 mg/mL compound in 100 mM acetate pH 4): − (denotes lack of solubility at the given condition, as UV absorbance at 340 nm exceeds 0.1 AU and/or it is visibly turbid or contains particles.) | Solubility, Condition 2 Acetate pH 5 ([5]; 10 mg/mL compound in 100 mM acetate pH 5): + (denotes solubility at the given condition, as determined by UV absorbance being less than 0.1 AU at 340 nm and the sample being clear when manually inspected.) | Solubility, Condition 3 Phosphate pH 6 ([5]; 10 mg/mL compound in 100 mM phosphate pH 6): + (denotes solubility at the given condition, as determined by UV absorbance being less than 0.1 AU at 340 nm and the sample being clear when manually inspected.) | Solubility, Condition 4 Phosphate pH 7 ([5]; 10 mg/mL compound in 100 mM phosphate pH 7): + (denotes solubility at the given condition, as determined by UV absorbance being less than 0.1 AU at 340 nm and the sample being clear when manually inspected.) | Solubility, Condition 5 Phosphate pH 7.5 ([5]; 10 mg/mL compound in 100 mM phosphate pH 7.5): + (denotes solubility at the given condition, as determined by UV absorbance being less than 0.1 AU at 340 nm and the sample being clear when manually inspected.)

B1: Compound J (peptide)
peptide: Ac-ICVWQDWGEHRCTEGE-NH2
modifications: disulfide 2-12
SMILES: CC[C@H](C)[C@H](NC(C)=O)C(=O)N[C@H]1CSSC[C@@H](C(=O)N[C@H](C(=O)N[C@@H](CCC(=O)O)C(=O)NCC(=O)N[C@@H](CCC(=O)O)C(N)=O)[C@@H](C)O)NC(=O)[C@H](CCCNC(=N)N)NC(=O)[C@H](Cc2c[nH]cn2)NC(=O)[C@H](CCC(=O)O)NC(=O)CNC(=O)[C@H](Cc2c[nH]c3ccccc23)NC(=O)[C@H](CC(=O)O)NC(=O)[C@H](CCC(N)=O)NC(=O)[C@H](Cc2c[nH]c3ccccc23)NC(=O)[C@H](C(C)C)NC1=O
CP hemolysis IC50 [6]: 240 nM

B2: Compound B (peptide)
peptide: Ac-ICVWQDWGSHRCT-NH2
modifications: disulfide 2-12
SMILES: CC[C@H](C)[C@H](NC(C)=O)C(=O)N[C@H]1CSSC[C@@H](C(=O)N[C@H](C(N)=O)[C@@H](C)O)NC(=O)[C@H](CCCNC(=N)N)NC(=O)[C@H](Cc2c[nH]cn2)NC(=O)[C@H](CO)NC(=O)CNC(=O)[C@H](Cc2c[nH]c3ccccc23)NC(=O)[C@H](CC(=O)O)NC(=O)[C@H](CCC(N)=O)NC(=O)[C@H](Cc2c[nH]c3ccccc23)NC(=O)[C@H](C(C)C)NC1=O
CP hemolysis IC50 [6]: 360 nM

B3: Compound F (peptide)
peptide: Ac-ICVWQDWGEHSCT-NH2
modifications: disulfide 2-12
SMILES: CC[C@H](C)[C@H](NC(C)=O)C(=O)N[C@H]1CSSC[C@@H](C(=O)N[C@H](C(N)=O)[C@@H](C)O)NC(=O)[C@H](CO)NC(=O)[C@H](Cc2c[nH]cn2)NC(=O)[C@H](CCC(=O)O)NC(=O)CNC(=O)[C@H](Cc2c[nH]c3ccccc23)NC(=O)[C@H](CC(=O)O)NC(=O)[C@H](CCC(N)=O)NC(=O)[C@H](Cc2c[nH]c3ccccc23)NC(=O)[C@H](C(C)C)NC1=O
CP hemolysis IC50 [6]: 540 nM

B4: Compound E (peptide)
peptide: Ac-ICVWQDWGAHSCT-NH2
modifications: disulfide 2-12
SMILES: CC[C@H](C)[C@H](NC(C)=O)C(=O)N[C@H]1CSSC[C@@H](C(=O)N[C@H](C(N)=O)[C@@H](C)O)NC(=O)[C@H](CO)NC(=O)[C@H](Cc2c[nH]cn2)NC(=O)[C@H](C)NC(=O)CNC(=O)[C@H](Cc2c[nH]c3ccccc23)NC(=O)[C@H](CC(=O)O)NC(=O)[C@H](CCC(N)=O)NC(=O)[C@H](Cc2c[nH]c3ccccc23)NC(=O)[C@H](C(C)C)NC1=O
CP hemolysis IC50 [6]: > 1000 nM

B5: Compound C (peptide)
peptide: Ac-ESSAICVWQDWGEHRCT-NH2
modifications: disulfide 6-16
SMILES: CC[C@H](C)[C@H](NC(=O)[C@H](C)NC(=O)[C@H](CO)NC(=O)[C@H](CO)NC(=O)[C@H](CCC(=O)O)NC(C)=O)C(=O)N[C@H]1CSSC[C@@H](C(=O)N[C@H](C(N)=O)[C@@H](C)O)NC(=O)[C@H](CCCNC(=N)N)NC(=O)[C@H](Cc2c[nH]cn2)NC(=O)[C@H](CCC(=O)O)NC(=O)CNC(=O)[C@H](Cc2c[nH]c3ccccc23)NC(=O)[C@H](CC(=O)O)NC(=O)[C@H](CCC(N)=O)NC(=O)[C@H](Cc2c[nH]c3ccccc23)NC(=O)[C@H](C(C)C)NC1=O
CP hemolysis IC50 [6]: 300 nM

B6: Compound 6 (peptide)
peptide: Ac-ICIWQDWGSHRCT-NH2
modifications: disulfide 2-12
SMILES: CC[C@H](C)[C@H](NC(C)=O)C(=O)N[C@H]1CSSC[C@@H](C(=O)N[C@H](C(N)=O)[C@@H](C)O)NC(=O)[C@H](CCCNC(=N)N)NC(=O)[C@H](Cc2c[nH]cn2)NC(=O)[C@H](CO)NC(=O)CNC(=O)[C@H](Cc2c[nH]c3ccccc23)NC(=O)[C@H](CC(=O)O)NC(=O)[C@H](CCC(N)=O)NC(=O)[C@H](Cc2c[nH]c3ccccc23)NC(=O)[C@H]([C@@H](C)CC)NC1=O
IC50[nM], inhibition of hemolysis [7]: < 250 nM | CP hemolysis IC50 [6]: 140 nM
